Experimental data: patent US20220281848A1, “PYRAZOLE-SUBSTITUTED PYRROLIDINONES AS HERBICIDES” (FMC Corporation, priority 2019, published 2022)

Tests used:
Assay type in all cases: in vivo
plants = test: Test D post-emergence, other plants of Tables D2 and D4; conditions: post-emergence
In short: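 Damage was rated visually from 0 (none) to 100 (total), at 20 DAA for pre-emergence and 15 d for post-emergence. Plants grew from safener-treated seed in a glasshouse at 24/18° C. or 20/16° C. day/night, 65% humidity, watered twice daily.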

[1] = test system: redroot pigweed (Amaranthus retroflexus, AMARE); test: Test A post-emergence, redroot pigweed; conditions: after 13 d
In short: (§1)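 Plants sown in standard soil were grown 8 d in a glasshouse (24/16 °C day/night, 14 h light, 65% humidity), then sprayed with compound in acetone/water (50:50) with 0.5% Tween 20 at 15.625, 62.5 or 250 g/ha. Damage was scored after 13 d (0 = none, 100 = total).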

[2] = test system: redroot pigweed (Amaranthus retroflexus, AMARE); test: Test A pre-emergence, redroot pigweed; conditions: after 13 d
In short: (§2)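 Seeds were sown in standard soil in pots, kept one day in a glasshouse (24/16° C. day/night, 14 h light, 65% humidity), then sprayed with compound in acetone/water (50:50) containing 0.5% Tween 20 at 15.625, 62.5 or 250 g/ha. Plants grew on under the same conditions, watered twice daily, and damage was scored after 13 d (0 = none, 100 = total).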

[3] = test system: velvetleaf (Abutilon theophrasti, ABUTH); test: Test A post-emergence, velvetleaf; conditions: after 13 d
In short: as §1

[4] = test system: ivy-leaved morning glory (Ipomoea hederacea, IPOHE); test: Test A pre-emergence, ivy-leaved morning glory; conditions: after 13 d
In short: as §2

In the case of `CCn1nc([C@H]2CN(C)C(=O)[C@@H]2C(=O)Nc2cccc(F)c2F)c2c(F)cccc21` [Compound 7], the “damage to plant (100=total damage to plant; 0=no damage to plant), ABUTH” value (plants; rate 130, evaluated after 15 d) is reported as 0, the “damage to plant (100=total damage to plant; 0=no damage to plant), ABUTH” value (plants; rate 250, evaluated after 15 d) is reported as 10 and the “damage to plant (100=total damage to plant; 0=no damage to plant), ABUTH” value (plants; rate 500, evaluated after 15 d) is reported as 20. For the same compound, the “damage to plant (100=total damage to plant; 0=no damage to plant), AMARE” value (plants; rate 130, evaluated after 15 d) was 0, the “damage to plant (100=total damage to plant; 0=no damage to plant), AMARE” value (plants; rate 250, evaluated after 15 d) was 0 and the “damage to plant (100=total damage to plant; 0=no damage to plant), AMARE” value (plants; rate 500, evaluated after 15 d) was 10. For the same compound, the “damage to plant (100=total damage to plant; 0=no damage to plant), BIDPI” value (plants; rate 130, evaluated after 15 d) was 0, the “damage to plant (100=total damage to plant; 0=no damage to plant), BIDPI” value (plants; rate 250, evaluated after 15 d) was 0 and the “damage to plant (100=total damage to plant; 0=no damage to plant), BIDPI” value (plants; rate 500, evaluated after 15 d) was 0. The “damage to plant (100=total damage to plant; 0=no damage to plant), BRAPL” value (plants; rate 130, evaluated after 15 d) was 0, the “damage to plant (100=total damage to plant; 0=no damage to plant), BRAPL” value (plants; rate 250, evaluated after 15 d) was 80 and the “damage to plant (100=total damage to plant; 0=no damage to plant), BRAPL” value (plants; rate 500, evaluated after 15 d) was 80. The “damage to plant (100=total damage to plant; 0=no damage to plant), CYPES” value (plants; rate 130, evaluated after 15 d) was 0, the “damage to plant (100=total damage to plant; 0=no damage to plant), CYPES” value (plants; rate 250, evaluated after 15 d) was 0 and the “damage to plant (100=total damage to plant; 0=no damage to plant), CYPES” value (plants; rate 500, evaluated after 15 d) was 0. The “damage to plant (100=total damage to plant; 0=no damage to plant), DIGSA” value (plants; rate 130, evaluated after 15 d) was 0, the “damage to plant (100=total damage to plant; 0=no damage to plant), DIGSA” value (plants; rate 250, evaluated after 15 d) was 80 and the “damage to plant (100=total damage to plant; 0=no damage to plant), DIGSA” value (plants; rate 500, evaluated after 15 d) was 80. For the same compound, the “damage to plant (100=total damage to plant; 0=no damage to plant), ECHCG” value (plants; rate 130, evaluated after 15 d) was 20, the “damage to plant (100=total damage to plant; 0=no damage to plant), ECHCG” value (plants; rate 250, evaluated after 15 d) was 70 and the “damage to plant (100=total damage to plant; 0=no damage to plant), ECHCG” value (plants; rate 500, evaluated after 15 d) was 70. The “damage to plant (100=total damage to plant; 0=no damage to plant), EPHHL” value (plants; rate 130, evaluated after 15 d) was 0, the “damage to plant (100=total damage to plant; 0=no damage to plant), EPHHL” value (plants; rate 250, evaluated after 15 d) was 20 and the “damage to plant (100=total damage to plant; 0=no damage to plant), EPHHL” value (plants; rate 500, evaluated after 15 d) was 40. For the same compound, the “damage to plant (100=total damage to plant; 0=no damage to plant), GLXMA” value (plants; rate 130, evaluated after 15 d) was 0, the “damage to plant (100=total damage to plant; 0=no damage to plant), GLXMA” value (plants; rate 250, evaluated after 15 d) was 0 and the “damage to plant (100=total damage to plant; 0=no damage to plant), GLXMA” value (plants; rate 500, evaluated after 15 d) was 0. For the same compound, the “damage to plant (100=total damage to plant; 0=no damage to plant), IPOHE” value (plants; rate 130, evaluated after 15 d) was 0, the “damage to plant (100=total damage to plant; 0=no damage to plant), IPOHE” value (plants; rate 250, evaluated after 15 d) was 0 and the “damage to plant (100=total damage to plant; 0=no damage to plant), IPOHE” value (plants; rate 500, evaluated after 15 d) was 0. The “damage to plant (100=total damage to plant; 0=no damage to plant), ORYSA” value (plants; rate 130, evaluated after 15 d) was 0, the “damage to plant (100=total damage to plant; 0=no damage to plant), ORYSA” value (plants; rate 250, evaluated after 15 d) was 0 and the “damage to plant (100=total damage to plant; 0=no damage to plant), ORYSA” value (plants; rate 500, evaluated after 15 d) was 0. For the same compound, the “damage to plant (100=total damage to plant; 0=no damage to plant), PANMI” value (plants; rate 130, evaluated after 15 d) was 0, the “damage to plant (100=total damage to plant; 0=no damage to plant), PANMI” value (plants; rate 250, evaluated after 15 d) was 0 and the “damage to plant (100=total damage to plant; 0=no damage to plant), PANMI” value (plants; rate 500, evaluated after 15 d) was 0. The “damage to plant (100=total damage to plant; 0=no damage to plant), SETFA” value (plants; rate 130, evaluated after 15 d) was 0, the “damage to plant (100=total damage to plant; 0=no damage to plant), SETFA” value (plants; rate 250, evaluated after 15 d) was 70 and the “damage to plant (100=total damage to plant; 0=no damage to plant), SETFA” value (plants; rate 500, evaluated after 15 d) was 70. The “damage to plant (100=total damage to plant; 0=no damage to plant), SIDSP” value (plants; SIDSP, rate 500, evaluated after 15 d) was 30, the “damage to plant (100=total damage to plant; 0=no damage to plant), SORVU” value (plants; rate 130, evaluated after 15 d) was 0 and the “damage to plant (100=total damage to plant; 0=no damage to plant), SORVU” value (plants; rate 250, evaluated after 15 d) was 0. For the same compound, the “damage to plant (100=total damage to plant; 0=no damage to plant), SORVU” value (plants; rate 500, evaluated after 15 d) was 60, the “damage to plant (100=total damage; 0=no damage) AMARE” value ([1]; Post-Emergence at 15.625 g/ha) was 0 and the “damage to plant (100=total damage; 0=no damage) AMARE” value ([1]; Post-Emergence at 62.5 g/ha) was 0. For the same compound, the “damage to plant (100=total damage; 0=no damage) AMARE” value ([1]; Post-Emergence at 250 g/ha) was 0, the “damage to plant (100=total damage; 0=no damage) AMARE” value ([2]; Pre-Emergence at 15.625 g/ha) was 0 and the “damage to plant (100=total damage; 0=no damage) AMARE” value ([2]; Pre-Emergence at 62.5 g/ha) was 0. The “damage to plant (100=total damage; 0=no damage) AMARE” value ([2]; Pre-Emergence at 250 g/ha) was 0, the “damage to plant (100=total damage; 0=no damage) ABUTH” value ([3]; Post-Emergence at 15.625 g/ha) was 0 and the “damage to plant (100=total damage; 0=no damage) ABUTH” value ([3]; Post-Emergence at 62.5 g/ha) was 0. The “damage to plant (100=total damage; 0=no damage) ABUTH” value ([3]; Post-Emergence at 250 g/ha) was 0, the “damage to plant (100=total damage; 0=no damage) IPOHE” value ([4]; Pre-Emergence at 15.625 g/ha) was 20 and the “damage to plant (100=total damage; 0=no damage) IPOHE” value ([4]; Pre-Emergence at 62.5 g/ha) was 20. The “damage to plant (100=total damage; 0=no damage) IPOHE” value ([4]; Pre-Emergence at 250 g/ha) was 80.
